The values that follow come from ChEMBL document CHEMBL1165992, “A statistical analysis of in vitro human microsomal metabolic stability of small phenyl group substituents, leading to improved design sets for parallel SAR exploration of a chemical series” (Bioorg Med Chem, 2010).

One data set in a line: in vitro. The settings on record: human.
Data set [1] deals with 11-beta-hydroxysteroid dehydrogenase 1 (Homo sapiens, UniProt P28845). Put plainly: Inhibition of human 11beta-HSD1 by competitive binding assay.
11-beta-hydroxysteroid dehydrogenase 1, sequence (P28845 whole entry): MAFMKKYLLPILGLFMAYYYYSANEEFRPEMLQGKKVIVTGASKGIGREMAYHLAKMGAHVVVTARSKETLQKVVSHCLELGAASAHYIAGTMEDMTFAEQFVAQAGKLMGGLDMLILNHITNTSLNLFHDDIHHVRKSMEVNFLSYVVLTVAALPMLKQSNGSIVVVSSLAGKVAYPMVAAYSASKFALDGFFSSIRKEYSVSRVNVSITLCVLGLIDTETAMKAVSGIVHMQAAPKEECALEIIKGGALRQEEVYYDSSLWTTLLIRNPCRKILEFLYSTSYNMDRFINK

pIC50: −log10 of the molar value. Bounds are passed on as bounds.

Description for in vitro: Intrinsic clearance in human liver microsomes assessed per mg of microsomal protein at 0.2 to 1 uM after 30 mins by HPLC analysis

The term microsomal CLint denotes a measure of how fast metabolising enzymes remove a compound, apart from limits set by blood flow. A higher microsomal CLint goes with faster metabolism. `O=C(c1ccc(F)cc1)C1CCN(C(=O)c2cccc(F)c2)CC1` displayed an intrinsic clearance (microsomal CLint) at 0.5 h, 1 µM in the data set “in vitro” (liver microsomes) of 31.9 µL/min/mg.

`CCN(C(=O)NCc1ccc(S(C)(=O)=O)cc1)C1CCN(CCC(c2ccc(F)cc2)C2CCN(Cc3cccnc3)CC2)CC1` (configuration not stated) came in with an intrinsic metabolic clearance (microsomal CLint) at 0.5 h, 1 µM in the data set “in vitro” (liver microsomes) of 5 µL/min/mg.

Turning to `CCN(C(=O)NCc1ccc(S(C)(=O)=O)cc1)C1CCN(CCC(c2ccc(F)cc2)C2CCN(Cc3ccc4ccccc4n3)CC2)CC1` (configuration not stated), the microsomal CLint at 0.5 h, 1 µM in “in vitro” (liver microsomes) was found to be 3 µL/min/mg.

On to `CCN(C(=O)NCc1ccc(S(C)(=O)=O)cc1)C1CCN(CCC(c2ccccc2)C2CCN(Cc3cccnc3)CC2)CC1` (configuration not stated), for which the microsomal CLint at 0.5 h, 1 µM in “in vitro” (liver microsomes) is greater than 150 µL/min/mg.

Consider `O=C(c1ccc(F)cc1)C1CCN(C(=O)c2ccc(Cl)c(Cl)c2)CC1`, for which the intrinsic clearance (microsomal CLint) at 0.5 h, 1 µM in “in vitro” (liver microsomes) was 16.5 µL/min/mg.

For the compound `CCN(C(=O)NCc1ccc(F)cc1)C1CCN(CCC(c2ccccc2)c2ccccc2)CC1`, in “in vitro” (microsomes), the microsomal CLint at 0.5 h, 1 µM was determined as 105 µL/min/mg.

As for `CCN(C(=O)NCc1cccc(F)c1)C1CCN(CCC(c2ccccc2)c2ccccc2)CC1`, the microsomal CLint at 0.5 h, 1 µM in “in vitro” (liver microsomes) was determined as 86 µL/min/mg.

In the data set “in vitro” (liver microsomes), `CCN(C(=O)NCc1ccccc1F)C1CCN(CCC(c2ccccc2)c2ccccc2)CC1` had a microsomal CLint at 0.5 h, 1 µM of 74 µL/min/mg.

Usually pIC50 stands for −log10 of the IC50, conventionally taken in molar units. A higher pIC50 goes with a small IC50. Compound `NS(=O)(=O)c1cccc(C(=O)N2CCC(C(=O)c3ccc(F)cc3)CC2)c1` yielded an intrinsic clearance (microsomal CLint) at 0.5 h, 1 µM in “in vitro” (liver microsomes) of 13 µL/min/mg. This compound had a pIC50 in data set [1] of less than 4.52.

For the compound `O=C(c1ccc(F)cc1)C1CCN(C(=O)c2cccc(C(F)(F)F)c2)CC1`, in “in vitro” (liver microsomes), the microsomal CLint at 0.5 h, 1 µM was found to be 13.7 µL/min/mg.

As to `O=C(c1ccc(F)cc1)C1CCN(C(=O)c2ccc(-c3ccccc3)cc2)CC1`, the microsomal CLint at 0.5 h, 1 µM in the data set “in vitro” (liver microsomes) amounted to 4.93 µL/min/mg.

Turning to `O=C(c1ccc(F)cc1)C1CCN(C(=O)c2ccc(Cl)cc2Cl)CC1`, the microsomal CLint at 0.5 h, 1 µM in “in vitro” (liver microsomes) turned out to be 41.2 µL/min/mg. In data set [1], the negative logarithm of the IC50 (pIC50) is less than 4.52.

With `O=C(c1ccc(F)cc1)C1CCN(C(=O)c2cccc(Cl)c2)CC1`, in the data set “in vitro” (liver microsomes), the microsomal CLint at 0.5 h, 1 µM was determined as 22.2 µL/min/mg.

`O=C(c1ccc(F)cc1)C1CCN(C(=O)c2cc(F)cc(F)c2)CC1` showed a microsomal CLint at 0.5 h, 1 µM in the data set “in vitro” (liver microsomes) of 25.3 µL/min/mg. Besides, in data set [1], the pIC50 is less than 4.52.

The compound `COc1ccccc1C(=O)N1CCC(C(=O)c2ccc(F)cc2)CC1` displayed an intrinsic clearance (microsomal CLint) at 0.5 h, 1 µM in “in vitro” (liver microsomes) of 14.3 µL/min/mg. The compound further showed a pIC50 in data set [1] of 4.63.

With `CS(=O)(=O)c1cccc(C(=O)N2CCC(C(=O)c3ccc(F)cc3)CC2)c1`, the microsomal CLint at 0.5 h, 1 µM in “in vitro” (liver microsomes) turned out to be 11.4 µL/min/mg. The same compound had a pIC50 in data set [1] of less than 4.52.

Take `COc1cccc(C(=O)N2CCC(C(=O)c3ccc(F)cc3)CC2)c1`: the microsomal CLint at 0.5 h, 1 µM in “in vitro” (liver microsomes) came out at 12.9 µL/min/mg.

`Nc1ccccc1C(=O)N1CCC(C(=O)c2ccc(F)cc2)CC1` displayed a microsomal CLint at 0.5 h, 1 µM in “in vitro” (liver microsomes) of 15.6 µL/min/mg.

In “in vitro” (liver microsomes), `O=C(c1ccc(F)cc1)C1CCN(C(=O)c2ccccc2Cl)CC1` returned a microsomal CLint at 0.5 h, 1 µM of 32.6 µL/min/mg.

For the compound `O=C(c1ccc(F)cc1)C1CCN(C(=O)c2ccccc2)CC1`, the microsomal CLint at 0.5 h, 1 µM in “in vitro” (liver microsomes) was 23 µL/min/mg. Further, in data set [1], the pIC50 is 5.44.

In turn, `O=C(c1ccc(F)cc1)C1CCN(C(=O)c2ccccc2OC(F)(F)F)CC1` showed a microsomal CLint at 0.5 h, 1 µM in “in vitro” (liver microsomes) of 16.9 µL/min/mg.

The compound `O=C(c1ccc(F)cc1)C1CCN(C(=O)c2cccc(Br)c2)CC1` returned a microsomal CLint at 0.5 h, 1 µM in the data set “in vitro” (liver microsomes) of 19.3 µL/min/mg.

In “in vitro” (liver microsomes), `CCN(C(=O)NCc1c(F)cccc1F)C1CCN(CCC(c2ccccc2)c2ccccc2)CC1` showed a microsomal CLint at 0.5 h, 1 µM of 6 µL/min/mg.

In turn, `CN(C)c1cccc(C(=O)N2CCC(C(=O)c3ccc(F)cc3)CC2)c1` gave an intrinsic clearance (microsomal CLint) at 0.5 h, 1 µM in the data set “in vitro” (liver microsomes) of 53.5 µL/min/mg.

As for `O=C(c1ccc(F)cc1)C1CCN(C(=O)c2ccc(C(F)(F)F)cc2)CC1`, the microsomal CLint at 0.5 h, 1 µM in “in vitro” (liver microsomes) turned out to be 15.5 µL/min/mg.

Compound `COc1ccc(C(=O)N2CCC(C(=O)c3ccc(F)cc3)CC2)c(OC)c1` had a microsomal CLint at 0.5 h, 1 µM in the data set “in vitro” (liver microsomes) of 15.8 µL/min/mg.

`N#Cc1cccc(C(=O)N2CCC(C(=O)c3ccc(F)cc3)CC2)c1` returned a microsomal CLint at 0.5 h, 1 µM in “in vitro” (liver microsomes) of 14.5 µL/min/mg. The pIC50 in data set [1] is less than 4.52.

For `COc1ccc(C(=O)N2CCC(C(=O)c3ccc(F)cc3)CC2)cc1`, in the data set “in vitro” (liver microsomes), the microsomal CLint at 0.5 h, 1 µM came out at 22.6 µL/min/mg. In data set [1], the pIC50 is 4.80.

For `O=C(c1ccc(F)cc1)C1CCN(C(=O)c2ccccc2F)CC1`, the microsomal CLint at 0.5 h, 1 µM in “in vitro” (liver microsomes) was determined as 46.5 µL/min/mg. Moreover, in data set [1], the negative logarithm of the IC50 (pIC50) was 5.13.

Take `O=C(c1ccc(F)cc1)C1CCN(C(=O)c2ccc(N3CCOCC3)cc2)CC1`: the microsomal CLint at 0.5 h, 1 µM in the data set “in vitro” (liver microsomes) worked out at 15.2 µL/min/mg.

With `Cc1cccc(C(=O)N2CCC(C(=O)c3ccc(F)cc3)CC2)c1`, the microsomal CLint at 0.5 h, 1 µM in the data set “in vitro” (liver microsomes) is 43.6 µL/min/mg.

`COc1cccc(C(=O)N2CCC(C(=O)c3ccc(F)cc3)CC2)c1OC` showed a microsomal CLint at 0.5 h, 1 µM in the data set “in vitro” (liver microsomes) of 14.9 µL/min/mg.

Consider `O=C(c1ccc(F)cc1)C1CCN(C(=O)c2cccc(F)c2F)CC1`, for which the microsomal CLint at 0.5 h, 1 µM in “in vitro” (liver microsomes) was 18 µL/min/mg. The negative logarithm of the IC50 (pIC50) in data set [1] was less than 4.52.

`O=C(c1ccc(F)cc1)C1CCN(C(=O)c2ccc(Cl)c(C(F)(F)F)c2)CC1`: in “in vitro” (liver microsomes), the intrinsic metabolic clearance (microsomal CLint) at 0.5 h, 1 µM amounted to 11.5 µL/min/mg.

Compound `NS(=O)(=O)c1ccc(C(=O)N2CCC(C(=O)c3ccc(F)cc3)CC2)cc1` registered a microsomal CLint at 0.5 h, 1 µM in the data set “in vitro” (liver microsomes) of 12.3 µL/min/mg. In data set [1], this compound gave a pIC50 of less than 4.52.

Compound `O=C(c1ccc(F)cc1)C1CCN(C(=O)c2ccc(F)cc2)CC1` displayed a microsomal CLint at 0.5 h, 1 µM in “in vitro” (liver microsomes) of 17.1 µL/min/mg. The pIC50 in data set [1] is 4.66.

In the data set “in vitro” (liver microsomes), `CC(=O)c1ccc(C(=O)N2CCC(C(=O)c3ccc(F)cc3)CC2)cc1` gave a microsomal CLint at 0.5 h, 1 µM of 19.8 µL/min/mg.

As to `CCN(C(=O)NCc1ccc(S(C)(=O)=O)cc1)C1CCN(CCC(c2ccccc2)C2CCN(Cc3ccc4ccccc4n3)CC2)CC1` (configuration not stated), in the data set “in vitro” (liver microsomes), the microsomal CLint at 0.5 h, 1 µM was greater than 150 µL/min/mg.

As for `CS(=O)(=O)Nc1cccc(C(=O)N2CCC(C(=O)c3ccc(F)cc3)CC2)c1`, the microsomal CLint at 0.5 h, 1 µM in the data set “in vitro” (liver microsomes) stood at 9.23 µL/min/mg. Besides, the pIC50 in data set [1] is less than 4.52.

Take `Cc1ccc(C(=O)N2CCC(C(=O)c3ccc(F)cc3)CC2)cc1`: the microsomal CLint at 0.5 h, 1 µM in the data set “in vitro” (liver microsomes) was 41.8 µL/min/mg. This compound had a negative-log IC50 (pIC50) in data set [1] of 5.47.

`CS(=O)(=O)c1ccc(C(=O)N2CCC(C(=O)c3ccc(F)cc3)CC2)cc1` registered a microsomal CLint at 0.5 h, 1 µM in “in vitro” (liver microsomes) of 12.4 µL/min/mg. The same compound gave a pIC50 in data set [1] of less than 4.52.

The compound `Cc1ccccc1C(=O)N1CCC(C(=O)c2ccc(F)cc2)CC1` had a microsomal CLint at 0.5 h, 1 µM in “in vitro” (liver microsomes) of 23.5 µL/min/mg.

`O=C(c1ccc(F)cc1)C1CCN(C(=O)c2ccc(OC(F)(F)F)cc2)CC1` came in with a microsomal CLint at 0.5 h, 1 µM in the data set “in vitro” (liver microsomes) of 17.9 µL/min/mg.

For the compound `CCN(C(=O)NCc1cc(F)cc(F)c1)C1CCN(CCC(c2ccccc2)c2ccccc2)CC1`, the microsomal CLint at 0.5 h, 1 µM in “in vitro” (liver microsomes) is less than 3 µL/min/mg.

Take `Cc1ncc(-c2ccnc(Nc3ccccc3)n2)n1C(C)C`: the intrinsic metabolic clearance (microsomal CLint) at 0.5 h, 1 µM in the data set “in vitro” (liver microsomes) came out at 63.5 µL/min/mg.

As to `O=C(c1ccc(F)cc1)C1CCN(C(=O)c2ccc(Cl)cc2)CC1`, the microsomal CLint at 0.5 h, 1 µM in “in vitro” (liver microsomes) amounted to 18.6 µL/min/mg. The compound also gave a pIC50 in data set [1] of 5.22.

`O=C(c1ccc(F)cc1)C1CCN(C(=O)c2cccc(OC(F)(F)F)c2)CC1` displayed a microsomal CLint at 0.5 h, 1 µM in the data set “in vitro” (liver microsomes) of 31.8 µL/min/mg.

For `O=C(c1ccc(F)cc1)C1CCN(C(=O)c2ccc(F)cc2Cl)CC1`, the microsomal CLint at 0.5 h, 1 µM in the data set “in vitro” (liver microsomes) was 18 µL/min/mg.

`O=C(c1ccc(F)cc1)C1CCN(C(=O)c2ccc(F)c(F)c2)CC1` yielded a microsomal CLint at 0.5 h, 1 µM in “in vitro” (liver microsomes) of 12.5 µL/min/mg.

In the case of `N#Cc1ccccc1C(=O)N1CCC(C(=O)c2ccc(F)cc2)CC1`, the microsomal CLint at 0.5 h, 1 µM in “in vitro” (liver microsomes) came to 28.4 µL/min/mg.

Turning to `N#Cc1ccc(C(=O)N2CCC(C(=O)c3ccc(F)cc3)CC2)cc1`, the intrinsic clearance (microsomal CLint) at 0.5 h, 1 µM in “in vitro” (liver microsomes) was determined as 11.7 µL/min/mg. Further, in data set [1], the pIC50 was less than 4.52.

The compound `O=C(c1ccc(F)cc1)C1CCN(C(=O)c2cccc([N+](=O)[O-])c2)CC1` showed a microsomal CLint at 0.5 h, 1 µM in the data set “in vitro” (liver microsomes) of 5.3 µL/min/mg.

`O=C(c1ccc(F)cc1)C1CCN(C(=O)c2ccc([N+](=O)[O-])cc2)CC1` had a microsomal CLint at 0.5 h, 1 µM in “in vitro” (liver microsomes) of 9 µL/min/mg.

On to `O=C(c1ccc(F)cc1)C1CCN(C(=O)c2ccc(Br)cc2)CC1`, for which the microsomal CLint at 0.5 h, 1 µM in “in vitro” (liver microsomes) came out at 22.7 µL/min/mg.

Consider `CCN(C(=O)NCc1cc(F)ccc1F)C1CCN(CCC(c2ccccc2)c2ccccc2)CC1`, for which the microsomal CLint at 0.5 h, 1 µM in “in vitro” (liver microsomes) is less than 4 µL/min/mg.
